Results reported in patent US6887992B2, “3-cephem derivative crystal” (Otsuka Kagaku Kabushiki Kaisha, priority 1999, dated 2005).

Test: Stability Test: storage, factor of decomposition determined by HPLC
Format: physicochemical
Method: Used were 100 g of clathrate crystals comprising 3-formylcephem compound (1) and dimethylformamide prepared in Example 1 and 100 g of 3-formylcephem compound (1) prepared in Reference Example 1 (amorphous product). They were stored in a thermostatic chamber at 20 to 25° C. and in a refrigerator at 3 to 5° C. for a specified time to determine a factor of decomposition by high performance liquid chromatorgraphy (HPLC). It is clear from the table that the cephalosporin crystals of the invention scarcely causes decomposition and are excellent in stability.

[1] = stored in refrigerator at 3 to 5° C. for 48 days
[2] = stored in thermostatic chamber at 20 to 25° C. for 14 days

| Structure (SMILES) | Decomposition rate (%) [1] | Decomposition rate (%) [2] |
| --- | --- | --- |
| COc1ccc(COC(=O)C2=C(C=O)CSC3C(NC(=O)Cc4ccccc4)C(=O)N23)cc1 (stereo not shown) [amorphous product, p-methoxybenzyl ester of 7-phenylacetamide-3-formyl-3-cephem-4-carboxylic acid] | 13% | 59% |
| COc1ccc(COC(=O)C2=C(C=O)CSC3C(NC(=O)Cc4ccccc4)C(=O)N23)cc1 (stereo not shown) [crystal, p-methoxybenzyl ester of 7-phenylacetamide-3-formyl-3-cephem-4-carboxylic acid] | 0% | 2% |
